Source: patent US4332794A, “6"-Deoxydibekacin, 4",6"-dideoxydibekacin and 1-N-aminoacyl derivatives thereof, and the production of these new compounds” (Zaidan Hojin Biseibutsu Kagaku Kenkyu Kai, priority 1979, dated 1982)
In brackets after ≈: the same amount, converted by molar mass. Read-outs that look alike come from different tables or passages of the source.

Legend:
[1] = test system: Staphylococcus aureus APO1; experiment: MIC, serial dilution on nutrient agar; type: cell-based; details: APO1, 18 h
[2] = test system: Staphylococcus epidermidis 109; experiment: MIC, serial dilution on nutrient agar; type: cell-based; details: Staphylococcus epidermidis, 109, 18 h
[3] = test system: Mycrococcus flavus FDA 16; experiment: MIC, serial dilution on nutrient agar; type: cell-based; details: 18 h
Bacillus anthracis = experiment: microbe, parasite or virus in culture; type: cell-based; details: 18 h
Escherichia coli NIHJ = experiment: MIC, serial dilution on nutrient agar; type: cell-based; details: 18 h
Escherichia coli K-12 = experiment: MIC, serial dilution on nutrient agar; type: cell-based; details: K12, 18 h
Escherichia coli K-12 R5 = experiment: microbe, parasite or virus in culture; type: cell-based; details: K12R5, 18 h
[4] = test system: Escherichia coli K-12 R 388; experiment: MIC, serial dilution on nutrient agar; type: cell-based; details: K12R388, 18 h
[5] = test system: Escherichia coli K-12 ML 1410; experiment: MIC, serial dilution on nutrient agar; type: cell-based; details: K12ML1410, 18 h
[6] = test system: Escherichia coli K-12 LA 290 R55; experiment: microbe, parasite or virus in culture; type: cell-based; details: K12LA290R55, 18 h
[7] = test system: Escherichia coli K-12 LA 290 R56; experiment: microbe, parasite or virus in culture; type: cell-based; details: K12LA290R56, 18 h
Escherichia coli W677 = experiment: MIC, serial dilution on nutrient agar; type: cell-based; details: W677, 18 h
[8] = test system: Escherichia coli JR66/W677; experiment: MIC, serial dilution on nutrient agar; type: cell-based; details: JR66/W677, 18 h
Salmonella typhi F63 = experiment: MIC, serial dilution on nutrient agar; type: cell-based; details: Salmonella enterica, 18 h
Proteus rettgeri GN311 = experiment: MIC, serial dilution on nutrient agar; type: cell-based; details: Providencia rettgeri
[9] = test system: Escherichia coli K-12 C 600R/35; experiment: MIC, serial dilution on nutrient agar; type: cell-based; details: K12C600R/35, 37° C., 18 hours
Procedure: (§1) The minimum inhibitory concentrations (mcg/ml) of 6"-deoxydibekacin (abbreviated as 6"-DDKB), 4",6"-dideoxydibekacin (abbreviated as 4",6"-DDKB), 1-N-(L-4-amino-2-hydroxybutyryl)-6"-deoxydibekacin (abbreviated as AHB-6"-DDKB) and 1-N-(L-4-amino-2-hydroxybutyryl)-4",6"-dideoxydibekacin (abbreviated as AHB-4",6"-DDKB) of this invention against various microorganisms were determined according to serial dilution method on a nutrient agar medium at 37° C., the estimation being made after 18 hours incubation. For comparison purpose, the minimum inhibitory concentrations of dibekacin (abbreviated as DKB) were also determined in the same manner as stated above.

[10] = test system: Escherichia coli K-12 J5B 11-2; experiment: MIC, serial dilution on nutrient agar; type: cell-based; details: K12J5B112, 37° C., 18 hours
Procedure: as §1

[11] = test system: Escherichia coli K-12 ML 1629; experiment: MIC, serial dilution on nutrient agar; type: cell-based; details: K12ML1629, 37° C., 18 hours
Procedure: as §1

[12] = test system: Escherichia coli K-12 ML 1630; experiment: MIC, serial dilution on nutrient agar; type: cell-based; details: K12ML1630, 37° C., 18 hours
Procedure: as §1

[13] = test system: Klebsiella pneumoniae PCI 602; experiment: MIC, serial dilution on nutrient agar; type: cell-based; details: PCI602, 37° C., 18 hours
Procedure: as §1

Proteus vulgaris OX19 = experiment: MIC, serial dilution on nutrient agar; type: cell-based; details: 37° C., 18 hours
Procedure: as §1

Providencia 2991 = experiment: MIC, serial dilution on nutrient agar; type: cell-based; details: 37° C., 18 hours
Procedure: as §1

[14] = test system: Pseudomonas aeruginosa 21-75; experiment: MIC, serial dilution on nutrient agar; type: cell-based; details: 2175, 37° C., 18 hours
Procedure: as §1

[15] = test system: Pseudomonas aeruginosa GN315; experiment: MIC, serial dilution on nutrient agar; type: cell-based; details: 37° C., 18 hours
Procedure: as §1

[16] = test system: Pseudomonas maltophilia GN907; experiment: MIC, serial dilution on nutrient agar; type: cell-based; details: Stenotrophomonas maltophilia, 37° C., 18 hours
Procedure: as §1

Serratia 4 = experiment: MIC, serial dilution on nutrient agar; type: cell-based; details: 37° C., 18 hours
Procedure: as §1

Serratia SOU = experiment: MIC, serial dilution on nutrient agar; type: cell-based; details: 37° C., 18 hours
Procedure: as §1

Serratia marcescens = experiment: MIC, serial dilution on nutrient agar; type: cell-based; details: 37° C., 18 hours
Procedure: as §1

[17] = test system: Shigella flexneri 4b JS11811; experiment: MIC, serial dilution on nutrient agar; type: cell-based; details: 4BJS11811, 37° C., 18 hours
Procedure: as §1

Shigella sonnei JS11746 = experiment: MIC, serial dilution on nutrient agar; type: cell-based; details: 37° C., 18 hours
Procedure: as §1

[18] = test system: Staphylococcus aureus 209P; experiment: MIC, serial dilution on nutrient agar; type: cell-based; details: 37° C., 18 hours
Procedure: as §1

Providencia Pv 16 = experiment: MIC, serial dilution on nutrient agar; type: cell-based
[19] = test system: Pseudomonas aeruginosa No. 12; experiment: MIC, serial dilution on nutrient agar; type: cell-based; details: NO.12, nutrient agar, 37° C., 18 hours, read-out: MIC
[20] = test system: Pseudomonas aeruginosa H9; experiment: MIC, serial dilution on nutrient agar; type: cell-based; details: H9, 18 h
[21] = test system: Pseudomonas aeruginosa TI-13; experiment: MIC, serial dilution on nutrient agar; type: cell-based
[22] = test system: Pseudomonas aeruginosa 99; experiment: MIC, serial dilution on nutrient agar; type: cell-based
[23] = test system: Pseudomonas aeruginosa ROS134/PU21; experiment: microbe, parasite or virus in culture; type: cell-based; details: ROS134/PU21, 18 h
[24] = test system: Pseudomonas aeruginosa K-Ps102; experiment: MIC, serial dilution on nutrient agar; type: cell-based; details: KPS102, nutrient agar, 37° C., 18 hours, read-out: MIC
intravenous LD50 in mice = details: mouse, in vivo, estimated

## C[C@@H]1C[C@H](N)[C@@H](O)[C@@H](O[C@@H]2[C@@H](O)[C@H](O[C@H]3O[C@H](CN)CC[C@H]3N)[C@@H](N)C[C@H]2N)O1 [4",6"-DDKB, 4",6"-dideoxydibekacin]
[1]
  MIC: 3.13 µg/mL (≈ 7.46 µM)
[2]
  MIC: 3.13 µg/mL (≈ 7.46 µM)
[3]
  MIC: 50 µg/mL (≈ 119 µM)
Bacillus anthracis
  MIC: < 0.2 µg/mL
Escherichia coli NIHJ
  MIC: 1.56 µg/mL (≈ 3.72 µM)
Escherichia coli K-12
  MIC: 1.56 µg/mL (≈ 3.72 µM)
Escherichia coli K-12 R5
  MIC: > 100 µg/mL
[4]
  MIC: 1.56 µg/mL (≈ 3.72 µM)
[5]
  MIC: 1.56 µg/mL (≈ 3.72 µM)
[6]
  MIC: 100 µg/mL (≈ 238 µM)
[7]
  MIC: 50 µg/mL (≈ 119 µM)
Escherichia coli W677
  MIC: 0.78 µg/mL (≈ 1.86 µM)
[8]
  MIC: 100 µg/mL (≈ 238 µM)
Salmonella typhi F63
  MIC: 0.78 µg/mL (≈ 1.86 µM)
Proteus rettgeri GN311; GN311, 18 h
  MIC: 3.13 µg/mL (≈ 7.46 µM)
[9]
  MIC: 50 µg/mL (≈ 119 µM)
[10]
  MIC: 3.13 µg/mL (≈ 7.46 µM)
[11]
  MIC: 3.13 µg/mL (≈ 7.46 µM)
[12]
  MIC: 3.13 µg/mL (≈ 7.46 µM)
[13]
  MIC: 0.78 µg/mL (≈ 1.86 µM)
Proteus vulgaris OX19
  MIC: 0.78 µg/mL (≈ 1.86 µM)
Providencia 2991
  MIC: > 100 µg/mL
[14]
  MIC: > 100 µg/mL
[15]
  MIC: > 100 µg/mL
[16]
  MIC: > 100 µg/mL
Serratia 4
  MIC: 100 µg/mL (≈ 238 µM)
Serratia SOU
  MIC: > 100 µg/mL
Serratia marcescens
  MIC: 100 µg/mL (≈ 238 µM)
[17]
  MIC: 3.13 µg/mL (≈ 7.46 µM)
Shigella sonnei JS11746
  MIC: 3.13 µg/mL (≈ 7.46 µM)
[18]
  MIC: 0.39 µg/mL (≈ 0.93 µM)
Providencia Pv 16; PV16, 18 h
  MIC: > 100 µg/mL
[19]
  MIC: 12.5 µg/mL (≈ 29.8 µM)
[20]
  MIC: 100 µg/mL (≈ 238 µM)
[21]; TI13, 18 h
  MIC: 100 µg/mL (≈ 238 µM)
[22]; Pseudomonas aeruginosa, 99, 18 h
  MIC: > 100 µg/mL
[23]
  MIC: > 100 µg/mL
[24]
  MIC: 25 µg/mL (≈ 59.6 µM)
Intravenous LD50 in mice
  LD50: > 60 mg/kg

## C[C@@H]1C[C@H](N)[C@@H](O)[C@@H](O[C@@H]2[C@@H](O)[C@H](O[C@H]3O[C@H](CN)CC[C@H]3N)[C@@H](N)C[C@H]2NC(=O)[C@@H](O)CCN)O1 [AHB-4",6"-DDKB, 1-N-(L-4-amino-2-hydroxybutyryl)-4",6"-dideoxydibekacin]
[1]
  MIC: 1.56 µg/mL (≈ 3 µM)
[2]
  MIC: 1.56 µg/mL (≈ 3 µM)
[3]
  MIC: 1.56 µg/mL (≈ 3 µM)
Bacillus anthracis
  MIC: < 0.2 µg/mL
Escherichia coli NIHJ
  MIC: 1.56 µg/mL (≈ 3 µM)
Escherichia coli K-12
  MIC: 1.56 µg/mL (≈ 3 µM)
Escherichia coli K-12 R5
  MIC: 100 µg/mL (≈ 192 µM)
[4]
  MIC: 0.78 µg/mL (≈ 1.5 µM)
[5]
  MIC: 1.56 µg/mL (≈ 3 µM)
[6]
  MIC: 1.56 µg/mL (≈ 3 µM)
[7]
  MIC: 1.56 µg/mL (≈ 3 µM)
Escherichia coli W677
  MIC: 1.56 µg/mL (≈ 3 µM)
[8]
  MIC: 3.13 µg/mL (≈ 6.01 µM)
Salmonella typhi F63
  MIC: 0.39 µg/mL (≈ 0.749 µM)
Proteus rettgeri GN311; GN311, nutrient agar, 37° C., 18 hours, read-out: MIC
  MIC: 25 µg/mL (≈ 48 µM)
[9]
  MIC: 0.78 µg/mL (≈ 1.5 µM)
[10]
  MIC: 1.56 µg/mL (≈ 3 µM)
[11]
  MIC: 1.56 µg/mL (≈ 3 µM)
[12]
  MIC: 1.56 µg/mL (≈ 3 µM)
[13]
  MIC: 0.78 µg/mL (≈ 1.5 µM)
Proteus vulgaris OX19
  MIC: 0.39 µg/mL (≈ 0.749 µM)
Providencia 2991
  MIC: 100 µg/mL (≈ 192 µM)
[14]
  MIC: > 100 µg/mL
[15]
  MIC: 100 µg/mL (≈ 192 µM)
[16]
  MIC: > 100 µg/mL
Serratia 4
  MIC: 6.25 µg/mL (≈ 12 µM)
Serratia SOU
  MIC: > 100 µg/mL
Serratia marcescens
  MIC: 100 µg/mL (≈ 192 µM)
[17]
  MIC: 6.25 µg/mL (≈ 12 µM)
Shigella sonnei JS11746
  MIC: 3.13 µg/mL (≈ 6.01 µM)
[18]
  MIC: 0.78 µg/mL (≈ 1.5 µM)
Providencia Pv 16; PV16, nutrient agar, 37° C., 18 hours, read-out: MIC
  MIC: 25 µg/mL (≈ 48 µM)
[19]
  MIC: 12.5 µg/mL (≈ 24 µM)
[20]
  MIC: 6.25 µg/mL (≈ 12 µM)
[21]; TI13, nutrient agar, 37° C., 18 hours, read-out: MIC
  MIC: 25 µg/mL (≈ 48 µM)
[22]; Pseudomonas aeruginosa, 99, nutrient agar, 37° C., 18 hours, read-out: MIC
  MIC: 12.5 µg/mL (≈ 24 µM)
[23]
  MIC: > 100 µg/mL
[24]
  MIC: 12.5 µg/mL (≈ 24 µM)
Intravenous LD50 in mice
  LD50: > 80 mg/kg
